Source: ChEMBL document CHEMBL6083262, “Stereorandomized Oncocins with Preserved Ribosome Binding and Antibacterial Activity” (J Med Chem, 2024)
The source made the active and inactive calls. No cut-off for these calls is given here. Non-standard residues stand in square brackets, D forms with d. Residues, ends and D or L forms follow the SMILES beside them. ξ: configuration not given here. ξY = NC(Cc1ccc(O)cc1)C(=O)O; ξR = N=C(N)NCCCC(N)C(=O)O; ξN = NC(=O)CC(N)C(=O)O; Nleu = CC(C)CNCC(=O)O; ξI = CCC(C)C(N)C(=O)O; Nlys = NCCCCNCC(=O)O; ξP = O=C(O)C1CCCN1

Tests used:
[1] = tested on: Pseudomonas aeruginosa; experiment: Antimicrobial activity against Pseudomonas aeruginosa PAO1 incubated for 16 to 20 hrs in full muller hinton medium by broth microdilution method; format: functional; conditions: time 16-20 hrs
[2] = tested on: Staphylococcus aureus; experiment: Antimicrobial activity against methicillin-resistant Staphylococcus aureus COL incubated for 16 to 20 hrs in full muller hinton medium by broth microdilution method; format: functional; conditions: time 16-20 hrs
[3] = Hemolytic activity in human RBC incubated for 4 hrs; format: toxicity, cell-based; conditions: erythrocyte
[4] = tested on: Staphylococcus aureus; experiment: Antimicrobial activity against methicillin-resistant Staphylococcus aureus COL incubated for 16 to 20 hrs in 12.5 % muller hinton medium by broth microdilution method; format: functional; conditions: time 16-20 hrs
[5] = tested on: Klebsiella pneumoniae; experiment: Antimicrobial activity against Klebsiella pneumoniae NCTC 418 incubated for 16 to 20 hrs in full muller hinton medium by broth microdilution method; format: functional; conditions: time 16-20 hrs
[6] = tested on: Acinetobacter baumannii; experiment: Antimicrobial activity against Acinetobacter baumannii ATCC 19606 incubated for 16 to 20 hrs in full muller hinton medium by broth microdilution method; format: functional; conditions: time 16-20 hrs
[7] = tested on: rRNA; experiment: Binding affinity to [gamma32 P-ATP] labeled Escherichia coli MG1655 23S ribosomal RNA (5-CCCTTGGGACCTACTTC-3') at U2506 position assessed as increase in band intensity at 1 uM incubated for 2.5 hrs in full muller hinton medium by CMCT based gel electrophoresis; format: nucleic-acid assay
[8] = tested on: Pseudomonas aeruginosa; experiment: Antimicrobial activity against Pseudomonas aeruginosa PAO1 incubated for 16 to 20 hrs in 12.5 % muller hinton medium by broth microdilution method; format: functional; conditions: time 16-20 hrs

Compound | MIC [1] [µg/mL] | MIC [2] [µg/mL] | MHC [3] [µg/mL] | MIC [4] [µg/mL] | MIC [5] [µg/mL] | MIC [6] [µg/mL] | Activity [7] | MIC [8] [µg/mL]
CCC(C)C(NC(=O)C(CCCNC(=N)N)NC(=O)C(CCCNC(=N)N)NC(=O)C1CCCN1C(=O)C1CCCN1C(=O)C(CCCNC(=N)N)NC(=O)C1CCCN1C(=O)C(CCCNC(=N)N)NC(=O)C1CCCN1C(=O)[C@H](CC(C)C)NC(=O)[C@H](Cc1ccc(O)cc1)NC(=O)[C@@H]1CCCN1C(=O)[C@@H]1CCCN1C(=O)[C@H](CCCCN)NC(=O)[C@H](CC(=O)O)NC(=O)[C@@H](N)C(C)C)C(=O)NC(Cc1ccc(O)cc1)C(=O)NC(CC(N)=O)C(=O)NC(CCCNC(=N)N)C(N)=O (stereo partly specified) (H-VDKPPYL[ξP][ξR][ξP][ξR][ξP][ξP][ξR][ξR][ξI][ξY][ξN][ξR]-NH2) | > 64 | > 64 | > 1000 | – | – | – | – | –
CC(C)C[C@H](NC(=O)CN(CC(C)C)C(=O)[C@H](CC(C)C)NC(=O)CN(CCCCN)C(=O)[C@H](CC(C)C)NC(=O)CN(CC(C)C)C(=O)[C@H](CCCCN)NC(=O)CN(CC(C)C)C(=O)[C@H](CC(C)C)NC(=O)CN(CCCCN)C(=O)[C@@H](N)CCCCN)C(N)=O (H-K[Nlys]L[Nleu]K[Nleu]L[Nlys]L[Nleu]L-NH2) | – | – | > 2000 | – | – | – | – | –
CC[C@H](C)[C@H](NC(=O)[C@H](CCCNC(=N)N)NC(=O)[C@H](CCCNC(=N)N)NC(=O)[C@@H]1CCCN1C(=O)[C@@H]1CCCN1C(=O)[C@@H](CCCNC(=N)N)NC(=O)[C@@H]1CCCN1C(=O)[C@H](CCCNC(=N)N)NC(=O)[C@@H]1CCCN1C(=O)[C@H](CC(C)C)NC(=O)[C@H](Cc1ccc(O)cc1)NC(=O)[C@@H]1CCCN1C(=O)[C@@H]1CCCN1C(=O)[C@H](CCCCN)NC(=O)[C@H](CC(=O)O)NC(=O)[C@@H](N)C(C)C)C(=O)N[C@@H](Cc1ccc(O)cc1)C(=O)N[C@@H](CC(N)=O)C(=O)N[C@@H](CCCNC(=N)N)C(N)=O (H-VDKPPYLPRP[dR]PPRRIYNR-NH2) | > 64 | > 64 | > 1000 | > 64 | – | – | – | –
CCC(C)C(NC(=O)C(CCCNC(=N)N)NC(=O)C(CCCNC(=N)N)NC(=O)C1CCCN1C(=O)C1CCCN1C(=O)C(CCCNC(=N)N)NC(=O)C1CCCN1C(=O)[C@H](CCCNC(=N)N)NC(=O)[C@@H]1CCCN1C(=O)[C@H](CC(C)C)NC(=O)[C@H](Cc1ccc(O)cc1)NC(=O)[C@@H]1CCCN1C(=O)[C@@H]1CCCN1C(=O)[C@H](CCCCN)NC(=O)[C@H](CC(=O)O)NC(=O)[C@@H](N)C(C)C)C(=O)NC(Cc1ccc(O)cc1)C(=O)NC(CC(N)=O)C(=O)NC(CCCNC(=N)N)C(N)=O (stereo partly specified) (H-VDKPPYLPR[ξP][ξR][ξP][ξP][ξR][ξR][ξI][ξY][ξN][ξR]-NH2) | – | > 64 | > 1000 | – | – | – | – | –
CC[C@H](C)[C@H](NC(=O)[C@H](CCCNC(=N)N)NC(=O)[C@H](CCCNC(=N)N)NC(=O)[C@@H]1CCCN1C(=O)[C@@H]1CCCN1C(=O)[C@H](CCCNC(=N)N)NC(=O)[C@@H]1CCCN1C(=O)[C@H](CCCNC(=N)N)NC(=O)[C@H]1CCCN1C(=O)[C@H](CC(C)C)NC(=O)[C@H](Cc1ccc(O)cc1)NC(=O)[C@@H]1CCCN1C(=O)[C@@H]1CCCN1C(=O)[C@H](CCCCN)NC(=O)[C@H](CC(=O)O)NC(=O)[C@@H](N)C(C)C)C(=O)N[C@@H](Cc1ccc(O)cc1)C(=O)N[C@@H](CC(N)=O)C(=O)N[C@@H](CCCNC(=N)N)C(N)=O (H-VDKPPYL[dP]RPRPPRRIYNR-NH2) | > 64 | > 64 | > 1000 | – | > 64 | > 64 | – | –
CC[C@@H](C)[C@@H](NC(=O)[C@@H](CCCNC(=N)N)NC(=O)[C@@H](CCCNC(=N)N)NC(=O)[C@H]1CCCN1C(=O)[C@H]1CCCN1C(=O)[C@@H](CCCNC(=N)N)NC(=O)[C@@H]1CCCN1C(=O)[C@H](CCCNC(=N)N)NC(=O)[C@@H]1CCCN1C(=O)[C@H](CC(C)C)NC(=O)[C@H](Cc1ccc(O)cc1)NC(=O)[C@@H]1CCCN1C(=O)[C@@H]1CCCN1C(=O)[C@H](CCCCN)NC(=O)[C@H](CC(=O)O)NC(=O)[C@@H](N)C(C)C)C(=O)N[C@H](Cc1ccc(O)cc1)C(=O)N[C@H](CC(N)=O)C(=O)N[C@H](CCCNC(=N)N)C(N)=O (H-VDKPPYLPRP[dR][dP][dP][dR][dR][dI][dY][dN][dR]-NH2) | – | > 64 | > 1000 | > 64 | – | – | Active | –
CC[C@H](C)[C@H](NC(=O)[C@H](CCCNC(=N)N)NC(=O)[C@H](CCCNC(=N)N)NC(=O)[C@@H]1CCCN1C(=O)[C@H]1CCCN1C(=O)[C@H](CCCNC(=N)N)NC(=O)[C@@H]1CCCN1C(=O)[C@H](CCCNC(=N)N)NC(=O)[C@@H]1CCCN1C(=O)[C@H](CC(C)C)NC(=O)[C@H](Cc1ccc(O)cc1)NC(=O)[C@@H]1CCCN1C(=O)[C@@H]1CCCN1C(=O)[C@H](CCCCN)NC(=O)[C@H](CC(=O)O)NC(=O)[C@@H](N)C(C)C)C(=O)N[C@@H](Cc1ccc(O)cc1)C(=O)N[C@@H](CC(N)=O)C(=O)N[C@@H](CCCNC(=N)N)C(N)=O (H-VDKPPYLPRPR[dP]PRRIYNR-NH2) | > 64 | > 64 | > 1000 | – | – | – | – | –
CCC(C)C(NC(=O)C(CCCNC(=N)N)NC(=O)C(CCCNC(=N)N)NC(=O)C1CCCN1C(=O)C1CCCN1C(=O)C(CCCNC(=N)N)NC(=O)C1CCCN1C(=O)C(CCCNC(=N)N)NC(=O)[C@@H]1CCCN1C(=O)[C@H](CC(C)C)NC(=O)[C@H](Cc1ccc(O)cc1)NC(=O)[C@@H]1CCCN1C(=O)[C@@H]1CCCN1C(=O)[C@H](CCCCN)NC(=O)[C@H](CC(=O)O)NC(=O)[C@@H](N)C(C)C)C(=O)NC(Cc1ccc(O)cc1)C(=O)NC(CC(N)=O)C(=O)NC(CCCNC(=N)N)C(N)=O (stereo partly specified) (H-VDKPPYLP[ξR][ξP][ξR][ξP][ξP][ξR][ξR][ξI][ξY][ξN][ξR]-NH2) | > 64 | > 64 | > 1000 | – | – | – | – | –
CC[C@H](C)[C@H](NC(=O)[C@H](CCCNC(=N)N)NC(=O)[C@H](CCCNC(=N)N)NC(=O)[C@@H]1CCCN1C(=O)[C@@H]1CCCN1C(=O)[C@H](CCCNC(=N)N)NC(=O)[C@@H]1CCCN1C(=O)[C@H](CCCNC(=N)N)NC(=O)[C@@H]1CCCN1C(=O)[C@H](CC(C)C)NC(=O)[C@H](Cc1ccc(O)cc1)NC(=O)[C@@H]1CCCN1C(=O)[C@H]1CCCN1C(=O)[C@H](CCCCN)NC(=O)[C@H](CC(=O)O)NC(=O)[C@@H](N)C(C)C)C(=O)N[C@@H](Cc1ccc(O)cc1)C(=O)N[C@@H](CC(N)=O)C(=O)N[C@@H](CCCNC(=N)N)C(N)=O (H-VDK[dP]PYLPRPRPPRRIYNR-NH2) | > 64 | > 64 | > 1000 | – | – | – | – | > 16
CC[C@H](C)[C@H](NC(=O)[C@H](CCCNC(=N)N)NC(=O)[C@H](CCCNC(=N)N)NC(=O)[C@@H]1CCCN1C(=O)[C@@H]1CCCN1C(=O)[C@H](CCCNC(=N)N)NC(=O)[C@H]1CCCN1C(=O)[C@H](CCCNC(=N)N)NC(=O)[C@@H]1CCCN1C(=O)[C@H](CC(C)C)NC(=O)[C@H](Cc1ccc(O)cc1)NC(=O)[C@@H]1CCCN1C(=O)[C@@H]1CCCN1C(=O)[C@H](CCCCN)NC(=O)[C@H](CC(=O)O)NC(=O)[C@@H](N)C(C)C)C(=O)N[C@@H](Cc1ccc(O)cc1)C(=O)N[C@@H](CC(N)=O)C(=O)N[C@@H](CCCNC(=N)N)C(N)=O (H-VDKPPYLPR[dP]RPPRRIYNR-NH2) | > 64 | > 64 | > 1000 | > 64 | – | – | – | –
CC[C@H](C)[C@H](NC(=O)[C@H](CCCNC(=N)N)NC(=O)[C@H](CCCNC(=N)N)NC(=O)[C@@H]1CCCN1C(=O)[C@@H]1CCCN1C(=O)[C@H](CCCNC(=N)N)NC(=O)[C@@H]1CCCN1C(=O)[C@@H](CCCNC(=N)N)NC(=O)[C@@H]1CCCN1C(=O)[C@H](CC(C)C)NC(=O)[C@H](Cc1ccc(O)cc1)NC(=O)[C@@H]1CCCN1C(=O)[C@@H]1CCCN1C(=O)[C@H](CCCCN)NC(=O)[C@H](CC(=O)O)NC(=O)[C@@H](N)C(C)C)C(=O)N[C@@H](Cc1ccc(O)cc1)C(=O)N[C@@H](CC(N)=O)C(=O)N[C@@H](CCCNC(=N)N)C(N)=O (H-VDKPPYLP[dR]PRPPRRIYNR-NH2) | > 64 | > 64 | > 1000 | > 64 | – | > 64 | – | –
CC[C@@H](C)[C@@H](NC(=O)[C@@H](CCCNC(=N)N)NC(=O)[C@@H](CCCNC(=N)N)NC(=O)[C@H]1CCCN1C(=O)[C@H]1CCCN1C(=O)[C@H](CCCNC(=N)N)NC(=O)[C@@H]1CCCN1C(=O)[C@H](CCCNC(=N)N)NC(=O)[C@@H]1CCCN1C(=O)[C@H](CC(C)C)NC(=O)[C@H](Cc1ccc(O)cc1)NC(=O)[C@@H]1CCCN1C(=O)[C@@H]1CCCN1C(=O)[C@H](CCCCN)NC(=O)[C@H](CC(=O)O)NC(=O)[C@@H](N)C(C)C)C(=O)N[C@H](Cc1ccc(O)cc1)C(=O)N[C@H](CC(N)=O)C(=O)N[C@H](CCCNC(=N)N)C(N)=O (H-VDKPPYLPRPR[dP][dP][dR][dR][dI][dY][dN][dR]-NH2) | > 64 | > 64 | > 1000 | – | – | – | Active | –
CC[C@H](C)[C@H](NC(=O)[C@H](CCCNC(=N)N)NC(=O)[C@H](CCCNC(=N)N)NC(=O)[C@@H]1CCCN1C(=O)[C@@H]1CCCN1C(=O)[C@H](CCCNC(=N)N)NC(=O)[C@@H]1CCCN1C(=O)[C@H](CCCNC(=N)N)NC(=O)[C@@H]1CCCN1C(=O)[C@H](CC(C)C)NC(=O)[C@@H](Cc1ccc(O)cc1)NC(=O)[C@@H]1CCCN1C(=O)[C@@H]1CCCN1C(=O)[C@H](CCCCN)NC(=O)[C@H](CC(=O)O)NC(=O)[C@@H](N)C(C)C)C(=O)N[C@@H](Cc1ccc(O)cc1)C(=O)N[C@@H](CC(N)=O)C(=O)N[C@@H](CCCNC(=N)N)C(N)=O (H-VDKPP[dY]LPRPRPPRRIYNR-NH2) | > 64 | > 64 | > 1000 | – | – | > 64 | – | –
